For test [1], the target named is T1, EP2 (Homo sapiens, UniProt P43116). The test is described as follows: EP2 cAMP activity study. Format: cell-based. The protocol: (§1) Data from running binding and activity studies on the compounds of the invention were carried out as described in U.S. Pat. No. 7,427,685, the contents of which are incorporated herein by reference.
Test [2] concerns the target T1, EP2. The test is described as follows: EP2 binding study. The note with it: read-out: EP2 Data (EC50 in nM) Ki. The protocol: as §1
Test [3] concerns the target T2, EP4 (Homo sapiens, UniProt P35408). Description: EP4 cAMP activity study. It counts as cell-based. The protocol: as §1
Test [4] deals with T2, EP4. The test is described as follows: EP4 binding study. The settings on record: read-out: EP4 data (EC50 in nM) KI. The protocol:
as §1

The next test concerns the target T3, hEP3A (Homo sapiens, UniProt P43115).
T3 sequence (P43115 1-390): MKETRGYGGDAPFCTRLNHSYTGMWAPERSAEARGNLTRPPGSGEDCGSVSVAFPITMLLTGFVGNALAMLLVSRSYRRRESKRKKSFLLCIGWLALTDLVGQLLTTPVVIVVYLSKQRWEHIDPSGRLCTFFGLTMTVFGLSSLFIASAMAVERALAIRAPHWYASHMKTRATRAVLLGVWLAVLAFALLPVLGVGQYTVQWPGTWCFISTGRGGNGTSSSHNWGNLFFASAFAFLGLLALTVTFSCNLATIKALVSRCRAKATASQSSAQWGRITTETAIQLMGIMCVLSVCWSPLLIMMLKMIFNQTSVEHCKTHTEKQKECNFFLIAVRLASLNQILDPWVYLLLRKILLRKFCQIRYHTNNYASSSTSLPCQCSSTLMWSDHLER
The test is described as follows: Other receptors activity, hEP3A. Format: cell-based. Here is the method: as §1

Where only a bound is given, the exact number is not on record here.

T1 sequence (P43116 whole entry): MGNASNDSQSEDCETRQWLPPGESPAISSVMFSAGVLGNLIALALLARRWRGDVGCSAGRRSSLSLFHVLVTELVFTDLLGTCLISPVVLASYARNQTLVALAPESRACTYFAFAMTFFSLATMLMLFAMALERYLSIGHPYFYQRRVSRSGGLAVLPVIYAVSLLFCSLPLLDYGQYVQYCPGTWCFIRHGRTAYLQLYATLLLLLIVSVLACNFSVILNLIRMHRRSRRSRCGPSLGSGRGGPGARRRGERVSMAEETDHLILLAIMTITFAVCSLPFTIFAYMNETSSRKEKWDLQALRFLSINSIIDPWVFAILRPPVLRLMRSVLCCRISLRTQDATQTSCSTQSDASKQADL
T2 sequence (P35408 whole entry): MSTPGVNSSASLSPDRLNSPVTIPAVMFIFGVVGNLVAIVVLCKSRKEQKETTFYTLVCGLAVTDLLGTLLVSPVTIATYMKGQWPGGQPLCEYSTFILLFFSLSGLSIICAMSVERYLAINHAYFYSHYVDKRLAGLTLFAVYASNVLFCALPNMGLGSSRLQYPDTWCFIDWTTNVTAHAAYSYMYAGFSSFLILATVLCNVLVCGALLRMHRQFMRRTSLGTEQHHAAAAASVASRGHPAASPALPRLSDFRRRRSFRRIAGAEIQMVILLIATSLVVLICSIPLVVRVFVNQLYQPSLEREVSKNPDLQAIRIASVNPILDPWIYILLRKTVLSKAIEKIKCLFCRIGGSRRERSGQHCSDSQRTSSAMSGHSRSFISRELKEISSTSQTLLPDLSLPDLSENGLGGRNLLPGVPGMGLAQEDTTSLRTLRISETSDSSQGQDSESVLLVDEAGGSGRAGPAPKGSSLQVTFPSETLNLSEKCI

For the compound `O=C(O)c1ccc(CC2CCc3c(cccc3-c3cccc(C(F)(F)F)c3)C2=O)cc1` (stereo not drawn) [Example 1, 4-((1-Oxo-5-(3-(trifluoromethyl)phenyl)-1,2,3,4-tetrahydronaphthalen-2-yl)methyl)benzoic acid], the EC50 on EP2 [1] turned out to be 6 nM; on EP4 [3], 196 nM. Besides, the Ki came out at 70 nM on EP2 [2] and 149 nM at EP4 [4].
For `O=C(O)c1ccc(CC2Cc3c(cccc3-c3cccc(C(F)(F)F)c3)C2=O)cc1` (stereo not drawn) [Example 2, 4-((1-Oxo-4-(3-(trifluoromethyl)phenyl)-2,3-dihydro-1H-inden-2-yl)methyl)benzoic acid], the figures for the EC50 on EP2 [1] and on EP4 [3] were 1 nM and 108 nM, respectively. Further, the values for the Ki at EP2 [2] and at EP4 [4] were 56 nM and 18 nM, respectively.
In the case of `O=C(O)c1ccc(CC2Cc3c(cccc3-c3cccc(Cl)c3)C2=O)cc1` (stereo not drawn) [Example 3, 4-((4-(3-Chlorophenyl)-1-oxo-2,3-dihydro-1H-inden-2-yl)methyl)benzoic acid], the EC50 on EP2 [1] stood at 26 nM; on EP4 [3], 1070 nM. The Ki at EP2 [2] was 130 nM; on EP4 [4], 954 nM.
In the case of `O=C(O)c1ccc(CC2Cc3c(cccc3-c3cccc4ccccc34)C2=O)cc1` (stereo not drawn) [Example 4, 4-((4-(Naphthalen-1-yl)-1-oxo-2,3-dihydro-1H-inden-2-yl)methyl)benzoic acid], the Ki came to 2080 nM at EP2 [2] and 1280 nM at EP4 [4]. In addition, the EC50 on EP4 [3] was found to be 1240 nM.
On to `O=C(O)c1ccc(CC2Cc3c(cccc3-c3ccc4ccccc4c3)C2=O)cc1` (stereo not drawn) [Example 5, 4-((4-(Naphthalen-2-yl)-1-oxo-2,3-dihydro-1H-inden-2-yl)methyl)benzoic acid], for which the 50% effective concentration (EC50) is 40 nM at EP2 [1] and more than 10000 nM on EP4 [3]. The Ki at EP2 [2] amounted to 61 nM; on EP4 [4] it was 1190 nM.
For the compound `O=C(O)c1ccc(CC2Cc3c(cccc3-c3ccc(C(F)(F)F)cc3)C2=O)cc1` (stereo not drawn) [Example 6, 4-((1-Oxo-4-(4-(trifluoromethyl)phenyl)-2,3-dihydro-1H-inden-2-yl)methyl)benzoic acid], the Ki was 338 nM on EP2 [2] and 4450 nM on EP4 [4]. Further, the EC50 on EP4 [3] was more than 10000 nM.
Consider `O=C(O)c1ccc(CC2Cc3c(cccc3-c3ccccc3C(F)(F)F)C2=O)cc1` (stereo not drawn) [Example 7, 4-((1-Oxo-4-(2-(trifluoromethyl)phenyl)-2,3-dihydro-1H-inden-2-yl)methyl)benzoic acid], for which the Ki at EP2 [2] is more than 10000 nM; at EP4 [4], 7090 nM. The compound further yielded an EC50 on EP4 [3] of more than 10000 nM.
Consider `COc1cc(-c2cccc3c2CC(Cc2ccc(C(=O)O)cc2)C3=O)cc(C(F)(F)F)c1` (stereo not drawn) [Example 8, 4-((4-(3-Methoxy-5-(trifluoromethyl)phenyl)-1-oxo-2,3-dihydro-1H-inden-2-yl)methyl)benzoic acid], for which the EC50 on EP2 [1] is 11 nM; at EP4 [3], 1050 nM. Further, the Ki on EP2 [2] turned out to be 21 nM; on EP4 [4] it was 889 nM.
The like results for `O=C(O)c1ccc(CC2Cc3c(cccc3-c3cc(C(F)(F)F)cc(C(F)(F)F)c3)C2=O)cc1` (stereo not drawn) [Example 9, 4-((4-(3,5-Bis(trifluoromethyl)phenyl)-1-oxo-2,3-dihydro-1H-inden-2-yl)methyl)benzoic acid] were, in that order, 5 nM, 1630 nM, 9 nM and 1780 nM.
The like results for `O=C(O)c1ccc(CC2Cc3c(cccc3-c3ccc(Cl)c(C(F)(F)F)c3)C2=O)cc1` (stereo not drawn) [Example 10, 4-((4-(4-Chloro-3-(trifluoromethyl)phenyl)-1-oxo-2,3-dihydro-1H-inden-2-yl)methyl)benzoic acid] were, in that order, 1 nM, 1090 nM, 3 nM and 1350 nM.
As to `COc1cccc(-c2cccc3c2CC(Cc2ccc(C(=O)O)cc2)C3=O)c1` (stereo not drawn) [Example 11, 4-((4-(3-Methoxyphenyl)-1-oxo-2,3-dihydro-1H-inden-2-yl)methyl)benzoic acid], the figures for the Ki on EP2 [2] and at EP4 [4] were 333 nM and 525 nM, respectively. For the same compound, at EP4 [3], the EC50 was 186 nM.
For the compound `Cc1cccc(-c2cccc3c2CC(Cc2ccc(C(=O)O)cc2)C3=O)c1` (stereo not drawn) [Example 12, 4-((1-Oxo-4-(m-tolyl)-2,3-dihydro-1H-inden-2-yl)methyl)benzoic acid], the EC50 came to 217 nM on EP2 [1] and 1170 nM at EP4 [3]. The Ki on EP2 [2] was 191 nM; on EP4 [4] it was 610 nM.
`O=C(O)c1ccc(CC2Cc3c(cccc3-c3ccccc3)C2=O)cc1` (stereo not drawn) [Example 13, 4-((1-Oxo-4-phenyl-2,3-dihydro-1H-inden-2-yl)methyl)benzoic acid]: the Ki at EP2 [2] came to 1140 nM; at EP4 [4] it was 1010 nM. Besides, at EP4 [3], the EC50 was 2440 nM.
`O=C(O)c1ccc(CC2CCc3c(cccc3-c3cccc(C(F)(F)F)c3)C2=O)s1` (stereo not drawn) [Example 14, 5-((1-Oxo-5-(3-(trifluoromethyl)phenyl)-1,2,3,4-tetrahydronaphthalen-2-yl)methyl)thiophene-2-carboxylic acid]: the EC50 was found to be 79 nM at EP2 [1] and 341 nM at EP4 [3]. Moreover, the Ki came out at 1390 nM at EP2 [2] and 1070 nM on EP4 [4].
Turning to `O=C(O)c1ccc(CC2Cc3c(cccc3-c3cccc(C(F)(F)F)c3)C2=O)s1` (stereo not drawn) [Example 15, 5-((1-Oxo-4-(3-(trifluoromethyl)phenyl)-2,3-dihydro-1H-inden-2-yl)methyl)thiophene-2-carboxylic acid], the EC50 on EP2 [1] is 11 nM; at EP4 [3], 54 nM; at hEP3A, more than 10000 nM. The inhibition constant (Ki) was found to be 131 nM at EP2 [2] and 137 nM on EP4 [4].
On to `O=C(O)c1ccc(CC2Cc3c(cccc3-c3cccc(Cl)c3)C2=O)s1` (stereo not drawn) [Example 16, 5-((4-(3-Chlorophenyl)-1-oxo-2,3-dihydro-1H-inden-2-yl)methyl)thiophene-2-carboxylic acid], for which the EC50 at EP2 [1] is 62 nM; on EP4 [3], 300 nM. The Ki on EP2 [2] worked out at 199 nM; on EP4 [4], 505 nM.
The like results for `O=C(O)c1cc(CC2Cc3c(cccc3-c3cccc(C(F)(F)F)c3)C2=O)cs1` (stereo not drawn) [Example 17, 4-((1-Oxo-4-(3-(trifluoromethyl)phenyl)-2,3-dihydro-1H-inden-2-yl)methyl)thiophene-2-carboxylic acid] were, in that order, 695 nM, more than 10000 nM, 674 nM and 7 nM.
For `O=C(O)c1csc(CC2Cc3c(cccc3-c3cccc(C(F)(F)F)c3)C2=O)c1` (stereo not drawn) [Example 18, 5-((1-Oxo-4-(3-(trifluoromethyl)phenyl)-2,3-dihydro-1H-inden-2-yl)methyl)thiophene-3-carboxylic acid], the results for the concentration for a half-maximal effect (EC50) on EP2 [1] and at EP4 [3] were 179 nM and 4970 nM, respectively. Also, the results for the Ki on EP2 [2] and on EP4 [4] were 96 nM and 5 nM, respectively.
Consider `O=C(O)c1cccc(CC2Cc3c(cccc3-c3cccc(C(F)(F)F)c3)C2=O)c1` (stereo not drawn) [Example 19, 3-((1-Oxo-4-(3-(trifluoromethyl)phenyl)-2,3-dihydro-1H-inden-2-yl)methyl)benzoic acid], for which the Ki came to 6760 nM on EP2 [2] and 2740 nM on EP4 [4]. The same compound gave an EC50 on EP4 [3] of 1470 nM.
For `COc1ccc(-c2cccc(C(F)(F)F)c2)c2c1C(=O)C(Cc1ccc(C(=O)O)cc1)C2` (stereo not drawn) [Example 20, 4-((7-Methoxy-1-oxo-4-(3-(trifluoromethyl)phenyl)-2,3-dihydro-1H-inden-2-yl)methyl)benzoic acid] the same measures were 7360 nM, 954 nM and more than 10000 nM.
Take `COc1cc(OC)cc(-c2cccc3c2CC(Cc2ccc(C(=O)O)cc2)C3=O)c1` (stereo not drawn) [Example 21]: the EC50 on EP2 [1] amounted to 79 nM; on EP4 [3], 874 nM. For the same compound, the Ki is 241 nM on EP2 [2] and 486 nM on EP4 [4].

The EC50 is the concentration at which the effect is half-maximal. In general, Ki refers to the equilibrium dissociation constant of an inhibitor or competing ligand from its target.

The record behind these values is patent US9415027B2, “Therapeutic agents” (Allergan, Inc., priority 2013, dated 2016).
